Test results from patent US6040293A, “Clavanins” (priority 1997, dated 2000).
Starred links: 1 amine or outer side, 2 acyl side, 3 side chain; linkers in the order of their positions; H or OH if unused. Non-standard residues stand in square brackets, D forms with d. No end group written: not given here. Tyr(Me) = O-methyl tyrosine, COc1ccc(C[C@H](N[*:1])C(=O)[*:2])cc1

Columns and labels:
Type in all cases: cell-based
Burkaholderia cepacia = system: Burkaholderia cepacia
Protocol: (§1) In more detail, the filtrates (≈3.5 mg of protein by BCA) were concentrated to 2 ml by vacuum centrifugation in a Speed Vac Concentrator (Savant Instruments, Hicksville, N.Y.). Gel permeation chromatography was performed on a 1.2×65 cm BioGel P-10 gel permeation column with 5% acetic acid. Preparative continuous acid-urea PAGE electrophoresis was performed as described by Harwig, S. S. L. et al., Anal Biochem (1993) 208:382. Active fractions were pooled and purified by RP-HPLC a 4.6×250 mm Vydac C18 column, using various linear gradients of acetonitrile in 0.1% trifluoroacetic acid (TFA) or 0.13% heptafluorobutyric acid (HFBA). Throughout this multistep procedure, fractions were lyophilized, concentrated and tested for antimicrobial activity against Listeria monocytogenes strain EGD by a radial diffusion technique described in Lehrer, R. I. et al., J Immunol Methods (1991) 137:167. In these assays, the underlay gels contained 9 mM sodium phosphate and 1 mM sodium citrate buffer, 0.30 mg/ml of trypticase soy broth powder (BBL, Cockeysville, Md.) and 1% agarose at a final pH of 6.5.
(§2) Clavanin E(2-23) was tested in the standard underlay assay described in Example 1 herein wherein the underlay contained 10 mM sodium phosphate buffer, pH 7.4 and 1:100 trypticase soy broth with and without 200 mM NaCl. The known antimicrobials cecropin A, cecropin B, and cecropin P1 were used as controls.
(§3) The standard underlay assay was again conducted supplying both E(3-23) and PG-1 to the underlay. In these assays, the underlay contained in addition to 1% agarose, 10 mM sodium phosphate buffer, pH 7.4, 1:100 trypticase soy broth and 200 mM NaCl. The underlays contain PG-1 alone, E(3-23) alone, or combinations of E(3-23) and PG-1.

P. aeruginosa [1] = experiment: minimal bacteriocidal concentrations under various conditions; design: unit not given here; conditions: pH 5.5
Protocol: (§4) The Tables below show the minimal bacteriocidal concentrations of PG-1, histatin 5, and Clavanin E(3-23) against various organisms under various conditions. E(3-23) was active over a broad pH range and, unlike hisatin 5, it retained activity in the presence of physiological sodium chloride concentrations.
(§5) Low salt conditions (10 mM phosphate)
(§6) High salt conditions (10 mM phosphate+100 mM NaCl)

E. coli = experiment: as above; design: unit not given here; conditions: pH 5.5
Protocol: as §4, §5, §6

S. aureus = system: S. aureus
Protocol: as §1, §2, §3
(§7) Finally, the activity of Clavanins A and E as well as E(3-23) and E(6-23) was tested against various target organisms at two pHs with and without salt.

L. monocytogenes = experiment: minimal bacteriocidal concentrations under various conditions; conditions: pH 5.5
Protocol: as §4, §5, §6

C. albicans = experiment: minimal bacteriocidal concentrations and activity under various conditions; conditions: pH 5.5
Protocol: as §7, §4, §5, §6

L. monocytogenes EGD = experiment: radial diffusion assay; conditions: for potency relative to Clavanins A and B: L. monocytogenes Strain EGD, radial diffusion (FIG. 5)
Protocol: as §1
(§8) In addition to Cecropin P1 and Magainin 1, the activity of Clavanin A(K) was also tested. Clavanin A(K) is identical to Clavanin A except that all of the histidine residues are replaced by lysine. […] The data are provided as minimal bacteriocidal concentrations expressed in μg/ml which are the X-intercepts of radial diffusion assays performed at pH 6.5 in an underlay that contained 10 mM buffer (9:1 citrate:phosphate), 1% agarose and 0.3 mg trypticase soy powder/ml.
The effect of pH on antimicrobial activity against several organisms was tested in a pH range wherein histidine becomes comparably charged to lysine. FIGS. 6-8 show the results for native or synthetic Clavanin A and synthetic Clavanin A(K) using defensin NP-2 as a control, with respect to L. monocytogenes, E. coli, and C. albicans respectively. The radial diffusion assays were conducted as described in Examples 1 and 3 above.

E. coli ML-35P = experiment: radial diffusion assay; conditions: radial diffusion (FIG. 5)
Protocol: as §1, §8

E. faecium = experiment: radial diffusion assay; conditions: X-intercept of radial diffusion assay, pH 6.5
Protocol: as §1, §8

P. aeruginosa [2] = experiment: standard underlay assay; design: dose or concentration left out as unconfirmed; conditions: pH 7.4
Protocol: as §1
[…] The known antimicrobials cecropin A, cecropin B, and cecropin P1 were used as controls.
The standard underlay assay was again conducted supplying both E(3-23) and PG-1 to the underlay. […]

[3] = system: E. coli, L. monocytogenes, P. aeruginosa, S. areus and C. albicans; experiment: activity against various target organisms at two pHs with and without salt; conditions: pH 5.5, 200 mM sodium chloride; most organisms (FIG. 13B)
Protocol: as §7

[4] = high salt (10 mM phosphate+100 mM NaCl)

## CC(C)C[C@H](NC(=O)[C@H](CCCNC(=N)N)NC(=O)CNC(=O)CNC(=O)[C@@H](N)CCCNC(=N)N)C(=O)N[C@H]1CSSC[C@@H](C(=O)N[C@H](C(=O)NCC(=O)N[C@@H](CCCNC(=N)N)C(N)=O)C(C)C)NC(=O)[C@H](C(C)C)NC(=O)[C@@H]2CSSC[C@H](NC(=O)[C@H](Cc3ccc(O)cc3)NC1=O)C(=O)N[C@@H](CCCNC(=N)N)C(=O)N[C@@H](CCCNC(=N)N)C(=O)N[C@@H](CCCNC(=N)N)C(=O)N[C@@H](Cc1ccccc1)C(=O)N2 [PG-1]
Burkaholderia cepacia; B. cepacia, pH 7.4, 200 mM NaCl, 1 μg/ml E(3-23) present
  effect of E(3-23) on MBC for PG-1: did not effect MBC
P. aeruginosa [1]; [4]
  minimal bacteriocidal concentration: 0.20
P. aeruginosa [1]; low salt (10 mM phosphate)
  minimal bacteriocidal concentration: 0.20
E. coli; [4]
  minimal bacteriocidal concentration: 0.04
E. coli; low salt (10 mM phosphate)
  minimal bacteriocidal concentration: 0.05
S. aureus; pH 7.4
  MBC for PG-1 in the presence of E(3-23): 0.07 µg/mL
  minimum bacterial concentration (MBC), agent alone: approximately 0.9 μg/ml
L. monocytogenes; [4]
  minimal bacteriocidal concentration: 0.10
L. monocytogenes; low salt (10 mM phosphate)
  minimal bacteriocidal concentration: 0.10
C. albicans; [4]
  minimal bacteriocidal concentration: 0.10
C. albicans; low salt (10 mM phosphate)
  minimal bacteriocidal concentration: 0.06

## AFKLL GRIIH HVGNF VY' GFS HVF* (AFKLLGRIIHHVGNFV[Tyr(Me)]GFSHVF-NH2; also: C-terminal modification (*)) [Clavanin D, Y' is o-methyl tyrosine]
L. monocytogenes EGD
  potency relative to Clavanins A and B: 3-5 fold
E. coli ML-35P
  potency relative to Clavanins A and B: 3-5 fold

## Cecropin P1
E. faecium
  minimal bacteriocidal concentration: 6.5 µg/mL
P. aeruginosa [2]
  activity, E(3-23) and cecropins compared: slightly more active than E(3-23)

## KLLGKIIHHVGNFVHGFSHVF-NH2 [Clavanin E(3-23), KLL GKIIH HVGNF VHGFS HVF*]
Burkaholderia cepacia; pH 7.4
  MBC of E(3-23) with PG-1 incorporated: 2.5 µg/mL
  MBC, agent alone: 7.5 µg/mL
S. aureus; pH 7.4
  MBC of E(3-23) in the presence of PG-1: 2.5 µg/mL
  minimum bacterial concentration (MBC), agent alone: 7.5 µg/mL

## LFKLLGKIIHHVGNFVHGFSHVF (LFKLLGKIIHHVGNFVHGFSHVF) [Clavanin E]
S. aureus; S. aureus, pH 5.5, 200 mM sodium chloride (FIG. 13B)
  effect of salt on activity: maintained its activity
[3]
  effect of salt on activity: better maintained

## VFHLL GKIIH HVGNF VY' GFS HVF* [Clavanin C, Y' is o-methyl tyrosine]
L. monocytogenes EGD
  potency relative to Clavanins A and B: 3-5 fold
E. coli ML-35P
  potency relative to Clavanins A and B: 3-5 fold

## cecropin A (KWKLFKKIEKVGQNIRDGIIKAGPAVAVVGQATQIAK; ends and bridges not checked; UniProt P01507 27-63, looked up) [known antimicrobial used as control]
P. aeruginosa [2]
  activity, E(3-23) and cecropins compared: slightly more active than E(3-23)

## defensin NP-2
L. monocytogenes EGD; L. monocytogenes, radial diffusion, pH 5.5, 6.5, 7.5 (FIG. 6)
  effect of pH of the assay on activity: no effect

## histatin 5 [Hs-5]
P. aeruginosa [1]; [4]
  minimal bacteriocidal concentration: > 500
P. aeruginosa [1]; low salt (10 mM phosphate)
  minimal bacteriocidal concentration: 2.2
E. coli; [4]
  minimal bacteriocidal concentration: 60.6
E. coli; low salt (10 mM phosphate)
  minimal bacteriocidal concentration: 1.1
L. monocytogenes; [4]
  minimal bacteriocidal concentration: > 500
L. monocytogenes; low salt (10 mM phosphate)
  minimal bacteriocidal concentration: 11.8
C. albicans; [4]
  minimal bacteriocidal concentration: > 500
C. albicans; low salt (10 mM phosphate)
  minimal bacteriocidal concentration: 7.2
